Test results reported in BindingDB's records for doi:10.1021/jm000160l (University of Maryland, 2000).
pKi: −log10 of the molar value.

What was measured:
[1] = molecular target: Glyoxalase I (Pseudomonas putida); assay: Binding affinity on Pseudomonas putida glyoxalase I (GlxI) was determined
[2] = molecular target: Glyoxalase I (Saccharomyces cerevisiae) (UniProt P50107); assay: Binding affinity on yeast glyoxalase I (GlxI) was determined
Sequence of Glyoxalase I (Saccharomyces cerevisiae) (P50107 whole entry, looked up): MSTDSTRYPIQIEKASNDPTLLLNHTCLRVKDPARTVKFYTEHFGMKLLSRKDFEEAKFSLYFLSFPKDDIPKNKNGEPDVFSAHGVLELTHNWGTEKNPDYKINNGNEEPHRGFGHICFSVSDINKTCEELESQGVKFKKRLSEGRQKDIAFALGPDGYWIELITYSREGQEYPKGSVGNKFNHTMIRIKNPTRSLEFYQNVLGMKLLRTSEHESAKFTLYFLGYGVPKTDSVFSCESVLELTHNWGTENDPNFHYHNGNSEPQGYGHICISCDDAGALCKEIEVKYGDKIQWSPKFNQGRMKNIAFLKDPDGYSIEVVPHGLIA

pKi [1]: 4.07
pKi [2]: 4.17
SMILES: CN(O)C(=O)SC[C@H](NC(=O)CC[C@H](N)C(=O)O)C(=O)NCC(=O)O [S-(N-methyl-N-hydroxycarbamoyl)glutathione]
